Measurements published in patent publication US20050020612A1, “4-Aryliquinazolines and the use thereof as nhe-3 inhibitors” (priority 2001, published 2005).
Counter-ions that a name gives are not always drawn.

Row | melting point | SMILES
1 | 289 to 290 °C | Cc1ccc(-c2nc(NN=C(N)N)nc3ccc(Cl)cc23)cc1 (as salt: HCl) [Example 10]
2 | 241 °C | NC(N)=Nc1nc(-c2cccc(N3CCNCC3)c2)c2cc(Cl)ccc2n1 (as salt: HCl) [Example 225]
